This is an account of results in patent US12545695B2, “Compounds for inhibiting neovascularization factors and use thereof” (UNIST (ULSAN NATIONAL INSTITUTE OF SCIENCE AND TECHNOLOGY), priority 2019, dated 2026).

In one assay the test system is TRAP-1. As to the kind of experiment: ATPase activity assay (PiColorLock Gold Phosphate Detection Kit). The note with it: TRAP1 0.5 μM, 0.2 mM ATP, inhibitor 0.520 μM preincubated 30 minutes (FIG. 16). It is filed as biochemical. As to the method: ATPase activity was measured by measuring the release of inorganic phosphates through the PiColorLock Gold Phosphate Detection Kit (Innova Biosciences) according to the manufacturer's manual. TRAP1 (0.5 μM) was cultured with 0.2 mM ATP in 100 mM Tris, 20 mM KCl, and 6 mM MgCl2 under the conditions of pH 7.0 and 37° C. for 3 hours. Thereafter, the PiColorLock Gold reagent and an accelerator (100:1) were added to a 100 μL ATP hydrolyzate sample. After culturing at 25° C. for 5 minutes, the change in color was stopped by adding 10 μL of a stop solution thereto, and the absorbance at 620 nm was measured by SYNERGY NEO microplate reader (BioTek Instruments).
For inhibitory ability analysis, TRAP1 was cultured with a predetermined concentration (0.520 μM) of inhibitor for 30 minutes and then stirred with ATP. Absorbance values were normalized to a DMSO control and data was expressed as % ATPase activity.
For inhibitory ability analysis, TRAP-1 was cultured with a predetermined concentration (0.520 μM) of inhibitor for 30 minutes and then stirred with ATP. Absorbance values were normalized to a DMSO control and data was expressed as % ATPase activity.

Assay [1] relates to oxygen-induced retinopathy mouse model. Description: Oxygen-induced retinopathy mouse model, intraocular injection, retinal vascular analysis. It is filed as in vivo, C57BL/6J mice. The note with it: 1 ul of 0.15 mM intraocularly injected once at P12, analysis P17 (FIG. 17). As for the experimental part:
An oxygen-induced retinopathy mouse model was induced by rearing young C57BL/6J (Hyochang Science Inc.) mice aged 7 days after birth (P7) in a hyperoxic chamber (Coy Lab. in vivo chamber, 75% O2) for 5 days (P12), and then rearing the mice in a normoxic environment for 5 days (P17). After the young mice were removed from the hyperoxic chamber (P12), 1 ul of SMX was intraocularly injected once at a concentration of 0.15 mM (0.1% DMSO). The SMX used for ocular injection was used after being diluted in phosphate buffer saline (1×PBS) to 0.1%, and 0.1% DMSO in 1×pbs was used in control mice. In the case of Eylea (aflibercept, anti-VEGFab), 40 ug was diluted in 1 ul and 1 ul was intraocularly injected.
(§1) The oxygen-induced retinopathy mouse model was formed, and then perfused with 1×PBS and 4% PFA. After mouse eyes were extracted and fixed in 4% PFA, the retinas were isolated. The isolated retinas were washed with 1×PBS, and then blocked (0.1% BSA, 0.1% Triton X-100 in 1×PBS) at room temperature for 1 hour. The retinas were treated with a CD31 blood-vessel staining antibody (CD31, Cell Signaling, 1:100) overnight at 4° C. […] Blood vessel staining was analyzed under a fluorescence microscope (Zen, Axio Zoom). […]
The oxygen-induced retinopathy mouse model was formed, and then perfused with 1×PBS and 4% PFA. […] Blood vessel staining was analyzed under a fluorescence microscope (Zen, Axio Zoom). […]

Assay [2] has the same test system. Description: Oxygen-induced retinopathy mouse model, eye drop administration, retinal vascular analysis. It is filed as in vivo, C57BL/6J mice. The note with it: 1 mM in Liposic, eye drops 3 times a day, P12 to P17; versus control eye (FIG. 18, 19).
Excerpt: An oxygen-induced retinopathy mouse model was induced by rearing young C57BL/6J (Hyochang Science Inc.) mice aged 7 days after birth (P7) in a hyperoxic chamber (Coy Lab. in vivo chamber, 75% O2) for 5 days (P12), and then rearing the mice in a normoxic environment for 5 days (P17).
An oxygen-induced retinopathy mouse model was induced by rearing young C57BL/6J (Hyochang Science Inc.) mice aged 7 days after birth (P7) in a hyperoxic chamber (Coy Lab. in vivo chamber, 75% O2) for 5 days (P12), and then rearing the mice in a normoxic environment for 5 days (P17). SMx was diluted with Liposic (solvent) to 1 mM during P12 to P17 (5 days), which is the period of time when oxygen-induced retinopathy is induced from normal oxygen, and then administered by eye drops 3 times a day. The right eye was administered SMx, and the left eye was administered the control Liposic.
as §1

`COC1=C(OC)C(=O)C(CCCCCCCCCC[P+](c2ccccc2)(c2ccccc2)c2ccccc2)=C(C)C1=O` [SMx]: the “ATPase activity of TRAP-1” value with TRAP-1 was “significantly increased according to the concentration”. Also, in assay [1], the “avascular area of the retina” value is reported as “significantly reduced compared to the Eylea-injected mouse retina” and the “neovascular area of the retina” value is “reduced to the same level as that of the Eylea-injected mouse retina”. Moreover, in assay [2], the avascular area entry was “significantly reduced” and the neovascular area result is reported as “significantly reduced”.
